In US8178540B2 (priority 2006, dated 2012):

Assays:
[1] = tested on: Sphaerotheca fuliginea; assay: Use Example 8: protective action on cucumber leaves; assay type: in vivo; conditions: 250 ppm (printed for RC 3 only); cucumber seedlings sprayed 1 day before inoculation; after seven days; untreated plants 90% infected
Source text: After inoculation, the trial plants were transferred to a green house.

[2] = tested on: Phytophthora infestans; assay type: in vivo; conditions: 250 ppm; tomato plants, sprayed 1 day before inoculation; after six days; untreated plants 90% infected
[3] = tested on: Alternaria solani; assay: Use Example 2: early blight of tomato, greenhouse, spores in 2% biomalt; assay type: in vivo; conditions: 250 ppm; tomato plants sprayed 1 day before inoculation; assessed after 5 days; untreated plants 90% infected
Description: The next day, the treated plants were inoculated with a spore suspension of Alternaria solani which contained 0.17×10^6 spores/ml in a 2% aqueous biomalt solution. The test plants were then placed in a water vapor-saturated chamber at temperatures of from 20 to 22° C. After 5 days the disease on the untreated infected control plants had developed to such an extent that the infection of all plants could be determined visually in %.

[4] = tested on: tobacco budworm (Heliothis virescens); conditions: 2500 ppm; eggs sprayed, 6 days

| Structure (SMILES) | infection (% diseased leaf area) [1] | infection [3] | further results |
| --- | --- | --- | --- |
| COc1nccc(CNS(=O)(=O)c2ccc(-c3ccc(Cl)cc3)cc2)n1 [Example 88] | no infection |  |  |
| O=S(=O)(NCc1ccncc1)c1ccc(-c2ccc(Cl)cc2)cc1 [RC 2] |  |  | infection (% diseased leaf area) [2]: 90% |
| O=S(=O)(NCc1ccncc1)c1ccc(Oc2ccc(Cl)cc2)cc1 [RC 1] |  | 40% |  |
| COc1cc(CNS(=O)(=O)c2ccc(-c3ccc(Cl)cc3)cc2)ccn1 [RC 3] | 90% |  |  |
| O=S(=O)(NCc1ccncn1)c1ccc(-c2ccc(Cl)cc2Cl)cc1 [Example 54] |  |  | mortality [4]: at least 75% |
| O=S(=O)(NCc1ccncn1)c1ccc(Oc2ccc(Cl)cc2)cc1 [Example 199] |  | less than or equal to 5% |  |
